Here are results for two molecules from the NIST ThermoML archive (doi:10.1016/j.jct.2009.06.022).

A short description of data set [1]: Molar enthalpy of transition or fusion. Conditions: Crystal; DSC.
A short description of data set [2]: molar enthalpy of vaporization or sublimation. Conditions: 298.15 K; Crystal; Static calorimetry.
For data set [3] the following is noted: Crystal; DTA.

Numbers after ± are expanded uncertainties.

For `O=C1CC(c2ccccc2)Oc2ccccc21` (stereo unspecified) [2,3-dihydroflavone], the “Molar enthalpy of transition or fusion” value in data set [1] was found to be 5.03 ± 0.139 kcal/mol. Moreover, the molar enthalpy in data set [2] was 25.6 ± 1.1 kcal/mol. For the same molecule, in data set [3], the Normal melting temperature is 76.34 ± 0.44 °C.
For `O=c1cc(-c2ccccc2)oc2ccccc12` [flavone], the “Molar enthalpy of transition or fusion” value in data set [1] came to 4.86 ± 0.122 kcal/mol. The molar enthalpy in data set [2] worked out at 25.9 ± 0.813 kcal/mol. In addition, in data set [3], the Normal melting temperature was 96.74 ± 0.44 °C.
